Structures can show the parent of a compound that is named as a salt. Where only a bound is given, the exact number is not on record here.

The target of the first assay is T1, Human Histamine H3 Receptor (Homo sapiens, UniProt Q9Y5N1).
T1 construct: expressed in transfected cells; host or cells: HEK293T (stably transfected; membranes prepared from the cells)
T1 sequence (Q9Y5N1 whole entry): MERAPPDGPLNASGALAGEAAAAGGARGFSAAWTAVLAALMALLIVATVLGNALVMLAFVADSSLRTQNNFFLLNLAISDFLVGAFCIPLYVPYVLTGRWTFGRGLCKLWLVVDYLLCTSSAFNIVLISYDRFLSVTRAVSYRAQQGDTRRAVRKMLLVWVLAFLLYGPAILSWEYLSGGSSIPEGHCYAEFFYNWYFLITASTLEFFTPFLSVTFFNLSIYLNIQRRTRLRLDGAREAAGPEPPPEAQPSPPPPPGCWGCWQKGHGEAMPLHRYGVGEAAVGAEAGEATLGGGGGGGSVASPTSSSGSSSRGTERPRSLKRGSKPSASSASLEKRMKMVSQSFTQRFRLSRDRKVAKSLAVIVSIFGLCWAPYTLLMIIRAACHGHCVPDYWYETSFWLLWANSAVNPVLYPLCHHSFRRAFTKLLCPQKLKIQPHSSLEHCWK
In words: Methyl histamine binding in human histamine H3 receptor cell line. The following applies: membranes of stably transfected HEK293T cells; methyl histamine radioligand 1 nM; one hour incubation at 30° C.; Ki from IC50 by Cheng-Prusoff; read-out: H3 Binding Ki. The method, then:
Evaluation of Methyl Histamine Binding in Human Histamine H3 Receptor Cell Line
The affinity of test compounds for the histamine 3 (H3) receptor is evaluated in the following manner. […] Cells are scraped from the plate, transferred to centrifuge tubes, washed one time in PBS by centrifugation in a Sorvall RT7 Plus centrifuge (2000 rpm 10 minutes, 4° C.). The resulting pellets are stored at −80° C. until ready for use. Cells are re-suspended in buffer (50 mM Tris pH=7.5) and placed in a Dounce homogenizer, douncing ten times to homogenize cells. The homogenate is spun down by centrifugation (Sorvall RT7 Plus, 1800 rpm 10 minutes, 4° C.). The supernatant is placed in a Corex tube and spun down by centrifugation (Sorvall RC 5c Plus, 17,000 rpm 20 minutes, 4° C.). The pellet is resuspended in buffer (50 mM Tris, pH 7.5). Protein concentration (ug/ul) is determined using the Micro-BCA Protein Determination. The binding assay is set up in a 96 well microtiter plate in a total volume of 250 uL. Non-specific binding is determined in the presence of 10 uM clobenpropit. The final radioligand concentration is 1 nM. The test compound is serially diluted using the Beckman Biomek2000 to a final approximate range of 100 uM to 100 pM. Membranes are suspended in buffer, homogenized in 2 bursts of ten seconds using a Vitris mechanical homogenizer set at power setting 5. Ten μg of membranes are added to each well. Following a one hour incubation at 30° C., the reaction is terminated by the addition of ice cold buffer and rapid filtration with a Packard Filtermate Harvester through a GF/B filter pre-soaked with 1% PEI for one hour. The plate is dried for one hour at 37° C. and 60 μL Microscint Scintillant is added to each well. The CPM per well is measured on a Packard Top Count NXT. Ki values are determined in nM. […] CPM values are expressed as % specific binding and plotted vs compound concentration. A curve is fitted using a four-parameter logistic fit and the IC50 value is determined. The Ki is calculated from this using the Cheng-Prusoff equation: […]=IC50/1+(L/Kd) where L=concentration of free radioligand used in the assay, and Kd is the dissociation constant of the radioligand for the receptor. L is determined for each experiment by counting an aliquot of the diluted radioligand (corresponding to that added to each well) and the Kd has previously been determined under identical conditions for this cell line/radioligand.
By Ki is commonly meant a measure of affinity in units of concentration, obtained from inhibition or displacement. `COC(=O)c1ccc(-c2ccc3c(c2)CCN(CCN2CCC[C@H]2C)C3=O)cc1` [Example 25, methyl 4-(2-{2-[(2R)-2-methylpyrrolidin-1-yl]ethyl}-1-oxo-1,2,3,4-tetrahydroiso-quinolin-6-yl)benzoate]: the Ki was less than 10 nM.

Staying with this assay, now noted: read-out: H3 Binding Ki.
Take `O=C1c2ccc(-c3ccc(F)cc3)cc2CCN1CCN1CCCC1` [Example 9, 6-(4-fluorophenyl)-2-(2-pyrrolidin-1-ylethyl)-3,4-dihydroiso-quinolin-1(2H)-one Hydrochloride]: the Ki is 10.1 to 25 nM.
As for `O=C1c2ccc(-c3cc(F)cc(F)c3)cc2CCN1CCN1CCCC1` [Example 10, 6-(3,5-difluorophenyl)-2-(2-pyrrolidin-1-ylethyl)-3,4-dihydroisoquinolin-1(2H)-one], the inhibition constant (Ki) is less than 10 nM.
On the same count and under the same terms, as for `O=C1c2ccc(-c3ccc(F)cc3F)cc2CCN1CCN1CCCC1` [Example 11, 6-(2,4-difluorophenyl)-2-(2-pyrrolidin-1-ylethyl)-3,4-dihydroisoquinolin-1(2H)-one], the figure is less than 10 nM; as for `O=C1c2ccc(-c3ccccc3F)cc2CCN1CCN1CCCC1` [Example 12, 6-(2-fluorophenyl)-2-(2-pyrrolidin-1-ylethyl)-3,4-dihydroisoquinolin-1(2H)-one], 10.1 to 25 nM; as for `O=C1c2ccc(-c3cccc(OC(F)(F)F)c3)cc2CCN1CCN1CCCC1` [Example 13, 2-(2-pyrrolidin-1-ylethyl)-6-[3-(trifluoromethoxy)phenyl]-3,4-dihydroisoquinolin-1(2H)-one], 25.1 to 50 nM.
Same read-out and setting: as for `O=C1c2ccc(-c3ccc(OC(F)(F)F)cc3)cc2CCN1CCN1CCCC1` [Example 14, 2-(2-pyrrolidin-1-ylethyl)-6-[4-(trifluoromethoxy)phenyl]-3,4-dihydroisoquinolin-1(2H)-one], the figure is 10.1 to 25 nM; as for `N#Cc1cccc(-c2ccc3c(c2)CCN(CCN2CCCC2)C3=O)c1` [Example 15, 3-[1-oxo-2-(2-pyrrolidin-1-ylethyl)-1,2,3,4-tetrahydroisoquinolin-6-yl]benzonitrile], less than 10 nM.
On the same count and under the same terms, the same measure for `O=C1c2ccc(-c3ccccc3)cc2CCN1CCN1CCCC1` [Example 16, 6-phenyl-2-(2-pyrrolidin-1-ylethyl)-3,4-dihydroisoquinolin-1(2H)-one]: 10.1 to 25 nM.
With `O=C1c2ccc(-c3ccc(F)c(F)c3)cc2CCN1CCN1CCCC1` [Example 17, 6-(3,4-difluorophenyl)-2-(2-pyrrolidin-1-ylethyl)-3,4-dihydroisoquinolin-1(2H)-one], the Ki is less than 10 nM.
Consider `O=C1c2ccc(-c3cccc(F)c3)cc2CCN1CCN1CCCC1` [Example 18, 6-(3-fluorophenyl)-2-(2-pyrrolidin-1-ylethyl)-3,4-dihydroisoquinolin-1(2H)-one], for which the Ki is 10.1 to 25 nM.
With `N#Cc1ccc(-c2ccc3c(c2)CCN(CCN2CCCC2)C3=O)cc1` [Example 19, 4-[1-oxo-2-(2-pyrrolidin-1-ylethyl)-1,2,3,4-tetrahydroisoquinolin-6-yl]benzonitrile], the Ki was less than 10 nM.
As for `O=C1c2ccc(-c3cccc(C(F)(F)F)c3)cc2CCN1CCN1CCCC1` [Example 20, 2-(2-pyrrolidin-1-ylethyl)-6-[3-(trifluoromethyl)phenyl]-3,4-dihydroisoquinolin-1(2H)-one], the Ki was less than 10 nM.
Same read-out and setting: as for `O=C1c2ccc(-c3ccc4c(c3)OCO4)cc2CCN1CCN1CCCC1` [Example 21, 6-(1,3-benzodioxol-5-yl)-2-(2-pyrrolidin-1-ylethyl)-3,4-dihydroisoquinolin-1(2H)-one], the figure is 10.1 to 25 nM; as for `O=C1c2ccc(-c3ccc(C(F)(F)F)cc3)cc2CCN1CCN1CCCC1` [Example 22, 2-(2-pyrrolidin-1-ylethyl)-6-[4-(trifluoromethyl)phenyl]-3,4-dihydroisoquinolin-1(2H)-one], less than 10 nM; as for `COc1ccc(-c2ccc3c(c2)CCN(CCN2CCCC2)C3=O)cc1` [Example 23, 6-(4-methoxyphenyl)-2-(2-pyrrolidin-1-ylethyl)-3,4-dihydroisoquinolin-1(2H)-one], less than 10 nM.
On the same count and under the same terms, as for `C[C@@H]1CCCN1CCN1CCc2ccc(-c3ccc(C#N)cc3)cc2C1=O` [Example 26, 4-(2-{2-[(2R)-2-methylpyrrolidin-1-yl]ethyl}-1-oxo-1,2,3,4-tetrahydroisoquinolin-7-yl)benzonitrile], the figure is less than 10 nM.
On the same count and under the same terms, as for `C[C@@H]1CCCN1CCN1CCc2c(cccc2-c2cccc(C#N)c2)C1=O` [Example 27, 3-(2-{2-[(2R)-2-methylpyrrolidin-1-yl]ethyl}-1-oxo-1,2,3,4-tetrahydroisoquinolin-5-yl)benzonitrile], the figure is 50.1 to 100 nM.
For the molecule `C[C@@H]1CCCN1CCN1CCc2c(cccc2-c2ccc(C#N)cc2)C1=O` [Example 28, 4-(2-{2-[(2R)-2-methylpyrrolidin-1-yl]ethyl}-1-oxo-1,2,3,4-tetrahydroisoquinolin-5-yl)benzonitrile], the Ki lay in the range of 10.1 to 25 nM.
With `N#Cc1ccc(-c2ccc3c(c2)CCN(CCCN2CCCC2)C3=O)cc1` [Example 32, 4-[1-oxo-2-(3-pyrrolidin-1-ylpropyl)-1,2,3,4-tetrahydroisoquinolin-6-yl]benzonitrile], the Ki is less than 10 nM.
Take `N#Cc1cccc(-c2ccc3c(c2)CCN(CCCN2CCCC2)C3=O)c1` [Example 33, 3-[1-oxo-2-(3-pyrrolidin-1-ylpropyl)-1,2,3,4-tetrahydroisoquinolin-6-yl]benzonitrile]: the Ki lay in the range of 25.1 to 50 nM.
Same read-out and setting: the same measure for `O=C1c2ccc(-c3ccncc3)cc2CCN1CCN1CCCC1` [Example 34, 6-pyridin-4-yl-2-(2-pyrrolidin-1-ylethyl)-3,4-dihydroisoquinolin-1(2)-one Hydrochloride]: less than 10 nM; for `N#Cc1ccc2c(ccn2-c2ccc3c(c2)CCN(CCN2CCCC2)C3=O)c1` [Example 35, 1-[1-oxo-2-(2-pyrrolidin-1-ylethyl)-1,2,3,4-tetrahydroisoquinolin-6-yl]-1H-indole-5-carbonitrile Hydrochloride]: less than 10 nM.
As for `O=C1c2ccc(-n3cccn3)cc2CCN1CCN1CCCC1` [Example 37, 6-(1H-pyrazol-1-yl)-2-(2-(pyrrolidin-1-yl)ethyl)-3,4-dihydroisoquinolin-1(2H)-one hydrochloride], the Ki was 10.1 to 25 nM.
Same read-out and setting: as for `O=C(c1ccc2c(c1)CCN(CCN1CCCC1)C2=O)N1CCCC1` [Example 38, 6-(pyrrolidin-1-ylcarbonyl)-2-(2-pyrrolidin-1-ylethyl)-3,4-dihydroisoquinolin-1(2H)-one hydrochloride], the figure is 10.1 to 25 nM.
Still for that read-out and setting: as for `C[C@H]1CCCN1CCN1CCc2cc(-c3ccc(F)cc3)ccc2C1=O` [Example 39, 6-(4-fluorophenyl)-2-{2-[(2S)-2-methylpyrrolidin-1-yl]ethyl}-3,4-dihydroiso-quinolin-1(2H)-one hydrochloride], the figure is 10.1 to 25 nM; as for `C[C@@H]1CCCN1CCN1CCc2cc(-c3ccc(F)cc3)ccc2C1=O` [Example 40, 6-(4-fluorophenyl)-2-{2-[(2R)-2-methylpyrrolidin-1-yl]ethyl}-3,4-dihydroisoquinolin-1(2H)-one], less than 10 nM; as for `O=C1c2ccc(-c3ccc(F)cc3)cc2CCN1CCN1CCCCC1` [Example 43, 6-(4-fluorophenyl)-2-(2-piperidin-1-ylethyl)-3,4-dihydroiso-quinolin-1(2H)-one hydrochloride], less than 10 nM.
`O=C1c2ccc(-c3ccc(F)cc3)cc2CCN1CCN1CCCCCC1` [Example 44, 2-(2-azepan-1-ylethyl)-6-(4-fluorophenyl)-3,4-dihydroisoquinolin-1(2H)-one hydrochloride]: the Ki is less than 10 nM.
`N#Cc1ccc(-c2ccc3c(c2)CCN(CCCN2CCCCC2)C3=O)cc1` [Example 45, 4-[1-oxo-2-(3-piperidin-1-ylpropyl)-1,2,3,4-tetrahydroisoquinolin-6-yl]benzonitrile hydrochloride]: the Ki lay within 10.1 to 25 nM.
Still for that read-out and setting: the same measure for `N#Cc1ccc(Oc2ccc3c(c2)CCN(CCN2CCCC2)C3=O)nc1` [Example 47, 6-{[1-oxo-2-(2-pyrrolidin-1-ylethyl)-1,2,3,4-tetrahydroisoquinolin-6-yl]oxy}nicotinonitrile]: 10.1 to 25 nM.
On the same count and under the same terms, the same measure for `C[C@@H]1CCCN1CCN1CCc2cc(Oc3ccc(C#N)cn3)ccc2C1=O` [Example 48, 6-[(2-{2-[(2R)-2-methylpyrrolidin-1-yl]ethyl}-1-oxo-1,2,3,4-tetrahydroisoquinolin-6-yl)oxy]nicotinonitrile]: less than 10 nM.
